According to PubChem BioAssay AID1963983 (Molecular Pharmacology Branch, DTP, NCI, 2024):

Test system: 186277-243-T-J2-PDC multi-cell spheroid viability
Test: Anticancer human tumor 186277-243-T-J2-PDC patient-derived colon adenocarcinoma cell line growth inhibition [PI3K]
Conditions: for IC50: curve of first compound; for viability, T/C: stronger effect = lower value
Summary of the method: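 Stroma-containing spheroids: tumor line, pooled-donor HUVEC, hMSC. Treatments: targeted agents with PI3K inhibitors. Dosing: clinically relevant, half-log spacing, 10 microM ceiling without known Cmax. Read-out: cell viability.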

[1] = second compound 0.00316 µM, first compound 0.0316 µM
[2] = second compound 0.00316 µM, first compound 0.1 µM
[3] = second compound 0.01 µM, first compound 0.0316 µM
[4] = second compound 0.01 µM, first compound 0.1 µM
[5] = second compound 0.0316 µM, first compound 0.0316 µM
[6] = second compound 0.0316 µM, first compound 0.1 µM
[7] = second compound 0.1 µM, first compound 0.0316 µM
[8] = second compound 0.1 µM, first compound 0.1 µM
[9] = second compound 0.316 µM, first compound 0.0316 µM
[10] = second compound 0.316 µM, first compound 0.1 µM
[11] = second compound 1 µM, first compound 0.0316 µM
[12] = second compound 1 µM, first compound 0.1 µM
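Note: spheroids exposed to compounds for seven days before viability reading.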
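Throughout, for viability, T/C: 100% = DMSO vehicle control viability.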

**Q.** Which IC50 (second compound 0.00316 µM) does the source give for `CC(C)n1nc(-c2ccc3oc(N)nc3c2)c2c(N)ncnc21` + COc1c(OCCCN2CCOCC2)ccc2c3n(c(=NC(=O)c4cnc(N)nc4)nc12)CCN3 here?
**A.** The IC50 was 0.0497 µM.

**Q.** And the IC50 (second compound 0.01 µM)?
**A.** The IC50 was 0.0422 µM.

**Q.** And the IC50 (second compound 0.0316 µM)?
**A.** Its IC50 is 0.00538 µM.

**Q.** And the IC50 (second compound 0.1 µM)?
**A.** The IC50 was < 0.000316 µM.

**Q.** And the IC50 (second compound 0.316 µM)?
**A.** Its IC50 is < 0.000316 µM.

**Q.** What about the IC50 (second compound 1 µM) of the same compound?
**A.** The IC50 was < 0.000316 µM.

**Q.** And the viability, T/C (second compound 0.00316 µM, first compound 0.000316 µM)?
**A.** Its viability, T/C is 108%.

**Q.** What about the viability, T/C (second compound 0.00316 µM, first compound 0.001 µM) of the same compound?
**A.** Its viability, T/C is 81.1%.

**Q.** And the viability, T/C (second compound 0.00316 µM, first compound 0.00316 µM)?
**A.** Its viability, T/C is 97.7%.

**Q.** And the viability, T/C (second compound 0.00316 µM, first compound 0.01 µM)?
**A.** Its viability, T/C is 82.9%.

**Q.** And the viability, T/C [1]?
**A.** The viability, T/C was 70.8%.

**Q.** What about the viability, T/C [2] of the same compound?
**A.** The viability, T/C was 21.2%.

**Q.** What about the viability, T/C (second compound 0.01 µM, first compound 0.000316 µM) of the same compound?
**A.** The viability, T/C was 97.5%.

**Q.** And the viability, T/C (second compound 0.01 µM, first compound 0.001 µM)?
**A.** The viability, T/C was 103%.

**Q.** What about the viability, T/C (second compound 0.01 µM, first compound 0.00316 µM) of the same compound?
**A.** Its viability, T/C is 86.5%.

**Q.** And the viability, T/C (second compound 0.01 µM, first compound 0.01 µM)?
**A.** The viability, T/C was 89.8%.

**Q.** What about the viability, T/C [3] of the same compound?
**A.** Its viability, T/C is 61%.

**Q.** And the viability, T/C [4]?
**A.** Its viability, T/C is 14.7%.

**Q.** And the viability, T/C (second compound 0.0316 µM, first compound 0.000316 µM)?
**A.** The viability, T/C was 74.2%.

**Q.** And the viability, T/C (second compound 0.0316 µM, first compound 0.001 µM)?
**A.** The viability, T/C was 70.6%.

**Q.** What about the viability, T/C (second compound 0.0316 µM, first compound 0.00316 µM) of the same compound?
**A.** The viability, T/C was 59.5%.

**Q.** What about the viability, T/C (second compound 0.0316 µM, first compound 0.01 µM) of the same compound?
**A.** Its viability, T/C is 39%.

**Q.** What about the viability, T/C [5] of the same compound?
**A.** Its viability, T/C is 17.1%.

**Q.** And the viability, T/C [6]?
**A.** Its viability, T/C is 6.6%.

**Q.** And the viability, T/C (second compound 0.1 µM, first compound 0.000316 µM)?
**A.** Its viability, T/C is 17%.

**Q.** What about the viability, T/C (second compound 0.1 µM, first compound 0.001 µM) of the same compound?
**A.** The viability, T/C was 17.5%.

**Q.** What about the viability, T/C (second compound 0.1 µM, first compound 0.00316 µM) of the same compound?
**A.** Its viability, T/C is 14.3%.

**Q.** And the viability, T/C (second compound 0.1 µM, first compound 0.01 µM)?
**A.** The viability, T/C was 9.3%.

**Q.** What about the viability, T/C [7] of the same compound?
**A.** Its viability, T/C is 8.21%.

**Q.** And the viability, T/C [8]?
**A.** The viability, T/C was 3.59%.

**Q.** And the viability, T/C (second compound 0.316 µM, first compound 0.000316 µM)?
**A.** The viability, T/C was 4.14%.

**Q.** What about the viability, T/C (second compound 0.316 µM, first compound 0.001 µM) of the same compound?
**A.** The viability, T/C was 7.06%.

**Q.** And the viability, T/C (second compound 0.316 µM, first compound 0.00316 µM)?
**A.** The viability, T/C was 4.26%.

**Q.** And the viability, T/C (second compound 0.316 µM, first compound 0.01 µM)?
**A.** The viability, T/C was 4.69%.

**Q.** And the viability, T/C [9]?
**A.** Its viability, T/C is 2.78%.

**Q.** And the viability, T/C [10]?
**A.** The viability, T/C was 2.4%.

**Q.** What about the viability, T/C (second compound 1 µM, first compound 0.000316 µM) of the same compound?
**A.** Its viability, T/C is 3.07%.

**Q.** What about the viability, T/C (second compound 1 µM, first compound 0.001 µM) of the same compound?
**A.** Its viability, T/C is 1.73%.

**Q.** And the viability, T/C (second compound 1 µM, first compound 0.00316 µM)?
**A.** Its viability, T/C is 3%.

**Q.** And the viability, T/C (second compound 1 µM, first compound 0.01 µM)?
**A.** The viability, T/C was 1.5%.

**Q.** And the viability, T/C [11]?
**A.** The viability, T/C was 3.24%.

**Q.** What about the viability, T/C [12] of the same compound?
**A.** Its viability, T/C is 1.04%.

**Q.** How did the IC50 (second compound 0.00316 µM) turn out when `CC1(C)CCC(CN2CCN(c3ccc(C(=O)NS(=O)(=O)c4ccc(NCC5CCOCC5)c([N+](=O)[O-])c4)c(Oc4cnc5[nH]ccc5c4)c3)CC2)=C(c2ccc(Cl)cc2)C1` + COc1c(OCCCN2CCOCC2)ccc2c3n(c(=NC(=O)c4cnc(N)nc4)nc12)CCN3 was run?
**A.** Its IC50 is > 10 µM.

**Q.** What about the IC50 (second compound 0.01 µM) of the same compound?
**A.** The IC50 was > 10 µM.

**Q.** And the IC50 (second compound 0.0316 µM)?
**A.** The IC50 was > 10 µM.

**Q.** What about the IC50 (second compound 0.1 µM) of the same compound?
**A.** The IC50 was < 0.0316 µM.

**Q.** And the IC50 (second compound 0.316 µM)?
**A.** Its IC50 is < 0.0316 µM.

**Q.** What about the IC50 (second compound 1 µM) of the same compound?
**A.** The IC50 was < 0.0316 µM.

**Q.** What about the viability, T/C [1] of the same compound?
**A.** Its viability, T/C is 110%.

**Q.** And the viability, T/C [2]?
**A.** The viability, T/C was 96.2%.

**Q.** And the viability, T/C (second compound 0.00316 µM, first compound 0.316 µM)?
**A.** The viability, T/C was 110%.

**Q.** And the viability, T/C (second compound 0.00316 µM, first compound 1 µM)?
**A.** The viability, T/C was 108%.

**Q.** And the viability, T/C (second compound 0.00316 µM, first compound 3.16 µM)?
**A.** The viability, T/C was 93%.

**Q.** And the viability, T/C (second compound 0.00316 µM, first compound 10 µM)?
**A.** Its viability, T/C is 115%.

**Q.** What about the viability, T/C [3] of the same compound?
**A.** Its viability, T/C is 99.1%.

**Q.** And the viability, T/C [4]?
**A.** Its viability, T/C is 105%.

**Q.** And the viability, T/C (second compound 0.01 µM, first compound 0.316 µM)?
**A.** The viability, T/C was 96.5%.

**Q.** And the viability, T/C (second compound 0.01 µM, first compound 1 µM)?
**A.** Its viability, T/C is 109%.

**Q.** What about the viability, T/C (second compound 0.01 µM, first compound 3.16 µM) of the same compound?
**A.** The viability, T/C was 82.6%.

**Q.** And the viability, T/C (second compound 0.01 µM, first compound 10 µM)?
**A.** The viability, T/C was 94%.

**Q.** And the viability, T/C [5]?
**A.** The viability, T/C was 80.8%.

**Q.** And the viability, T/C [6]?
**A.** The viability, T/C was 89.3%.

**Q.** What about the viability, T/C (second compound 0.0316 µM, first compound 0.316 µM) of the same compound?
**A.** The viability, T/C was 80.5%.

**Q.** What about the viability, T/C (second compound 0.0316 µM, first compound 1 µM) of the same compound?
**A.** The viability, T/C was 78.5%.

**Q.** And the viability, T/C (second compound 0.0316 µM, first compound 3.16 µM)?
**A.** Its viability, T/C is 76.1%.

**Q.** What about the viability, T/C (second compound 0.0316 µM, first compound 10 µM) of the same compound?
**A.** Its viability, T/C is 71.2%.

**Q.** And the viability, T/C [7]?
**A.** Its viability, T/C is 26.6%.

**Q.** What about the viability, T/C [8] of the same compound?
**A.** Its viability, T/C is 20.3%.

**Q.** And the viability, T/C (second compound 0.1 µM, first compound 0.316 µM)?
**A.** Its viability, T/C is 21.3%.

**Q.** What about the viability, T/C (second compound 0.1 µM, first compound 1 µM) of the same compound?
**A.** The viability, T/C was 21.3%.

**Q.** What about the viability, T/C (second compound 0.1 µM, first compound 3.16 µM) of the same compound?
**A.** The viability, T/C was 23.9%.

**Q.** And the viability, T/C (second compound 0.1 µM, first compound 10 µM)?
**A.** The viability, T/C was 16.9%.

**Q.** And the viability, T/C [9]?
**A.** The viability, T/C was 5.48%.

**Q.** And the viability, T/C [10]?
**A.** The viability, T/C was 11.5%.

**Q.** What about the viability, T/C (second compound 0.316 µM, first compound 0.316 µM) of the same compound?
**A.** The viability, T/C was 4.51%.

**Q.** What about the viability, T/C (second compound 0.316 µM, first compound 1 µM) of the same compound?
**A.** Its viability, T/C is 6.03%.

**Q.** What about the viability, T/C (second compound 0.316 µM, first compound 3.16 µM) of the same compound?
**A.** The viability, T/C was 6.17%.

**Q.** What about the viability, T/C (second compound 0.316 µM, first compound 10 µM) of the same compound?
**A.** Its viability, T/C is 4.39%.

**Q.** What about the viability, T/C [11] of the same compound?
**A.** The viability, T/C was 2.94%.

**Q.** And the viability, T/C [12]?
**A.** The viability, T/C was 4.42%.

**Q.** And the viability, T/C (second compound 1 µM, first compound 0.316 µM)?
**A.** Its viability, T/C is 3.06%.

**Q.** And the viability, T/C (second compound 1 µM, first compound 1 µM)?
**A.** Its viability, T/C is 2.7%.

**Q.** And the viability, T/C (second compound 1 µM, first compound 3.16 µM)?
**A.** Its viability, T/C is 5.01%.

**Q.** And the viability, T/C (second compound 1 µM, first compound 10 µM)?
**A.** Its viability, T/C is 2.15%.
